# Experimental data as given in PubChem BioAssay (NCI).
#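 Following 48 hours of exposure in 96-well plates, responses at five concentrations were used to interpolate endpoints linearly. TGI denotes the concentration required for complete inhibition of growth.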
# Assays:
# Assay in all cases: growth of human tumour cells (NCI), 48 h
# [1] = tested on: SR leukemia
# [2] = tested on: K-562 leukemia
# [3] = tested on: SK-OV-3 ovarian
# [4] = tested on: SF-268 CNS
# [5] = tested on: LOX IMVI melanoma
# [6] = tested on: UACC-62 melanoma
# [7] = tested on: KM12 colon
# [8] = tested on: SK-MEL-28 melanoma
# [9] = tested on: MALME-3M melanoma
# [10] = tested on: A549 NSCLC
Structure (SMILES),TGI [1],TGI [2],TGI [3],TGI [4],TGI [5],TGI [6],TGI [7],TGI [8],TGI [9],TGI [10]
COC(=O)[C@@H]1C=C[C@@H](C#N)n2c(=O)n(-c3ccccc3)c(=O)n21,47.4 µM,> 100 µM,> 100 µM,> 100 µM,48.4 µM,> 100 µM,73.2 µM,> 100 µM,,
Clc1ccccc1/C=C/c1nsc(/C=C/c2ccccc2Cl)n1,55.6 µM,48.5 µM,> 100 µM,> 100 µM,> 100 µM,,> 100 µM,> 100 µM,> 100 µM,> 100 µM
CCOC(=O)c1ncoc1[C@H]1COC(C)(C)O1,> 100 µM,> 100 µM,> 100 µM,> 100 µM,> 100 µM,> 100 µM,,,> 100 µM,> 100 µM
O=C1/C(=C\c2ccc([N+](=O)[O-])cc2)Sc2scc(-c3ccc(O)c(O)c3)[n+]21,27.9 µM,> 100 µM,26.2 µM,21 µM,> 100 µM,23.4 µM,27.6 µM,25 µM,,55.4 µM
CC(=O)N1c2ccccc2C(C)(C)OC1C(Cl)(Cl)Cl (stereo unspecified),,,> 100 µM,> 100 µM,,> 100 µM,> 100 µM,> 100 µM,> 100 µM,> 100 µM
CCCCCCCCCCCCCCCC(=O)ON1C(=S)NC(C)(c2ccccc2)C1=S (stereo unspecified),,> 100 µM,> 100 µM,> 100 µM,> 100 µM,> 100 µM,> 100 µM,,> 100 µM,> 100 µM
O=C(CCCN1CCC2(CC1)C(=O)NC(=O)N2c1ccccc1)c1ccc(F)cc1,> 100 µM,,> 100 µM,> 100 µM,> 100 µM,> 100 µM,> 100 µM,> 100 µM,> 100 µM,> 100 µM
CC(NC1=CC(=O)c2ncccc2C1=O)C(O)c1ccccc1 (stereo unspecified),> 100 µM,13.2 µM,71.7 µM,53.4 µM,13.3 µM,,24.8 µM,10.9 µM,4.97 µM,12.8 µM
CC1=C2C(=O)O[C@@H](c3ccoc3)[C@]2(C)CCC1=O,> 100 µM,> 100 µM,> 100 µM,,> 100 µM,> 100 µM,> 100 µM,> 100 µM,,> 100 µM
Oc1c(C2=NNC(c3cccs3)C2)ccc2ccccc12 (stereo unspecified),29.3 µM,44 µM,> 100 µM,38.3 µM,,30.3 µM,36.2 µM,> 100 µM,> 100 µM,> 100 µM
Cc1c2c(c(C)n1-c1ccccc1)C(=O)N(CCSC(=N)N)C2=O,,> 100 µM,> 100 µM,> 100 µM,,> 100 µM,> 100 µM,> 100 µM,> 100 µM,> 100 µM
Cc1cc2nc(N3C(=O)/C(=C/c4cccc([N+](=O)[O-])c4)N=C3c3ccccc3)sc2cc1C,35.1 µM,> 100 µM,> 100 µM,> 100 µM,55.8 µM,> 100 µM,> 100 µM,> 100 µM,,> 100 µM
ClC(Cl)(Cl)C1CCOC1n1nc2ccccc2n1 (stereo unspecified),> 100 µM,> 100 µM,> 100 µM,> 100 µM,,> 100 µM,,,> 100 µM,> 100 µM
Cc1c(C(=O)CSc2nc3ccc([N+](=O)[O-])cc3[nH]2)c(=O)n(-c2ccccc2)n1C,> 100 µM,,> 100 µM,> 100 µM,> 100 µM,,> 100 µM,> 100 µM,> 100 µM,> 100 µM
CCOc1ccc2ccccc2c1NC1=NCCO1,> 100 µM,61.3 µM,> 100 µM,> 100 µM,,> 100 µM,76.7 µM,> 100 µM,> 100 µM,> 100 µM
CNNC1=NS(=O)(=O)c2cc(C)c(Cl)cc2S1,,> 10 µM,> 10 µM,> 10 µM,> 10 µM,> 10 µM,> 10 µM,> 10 µM,> 10 µM,> 10 µM
O=[N+]([O-])c1ccc(Cl)cc1-n1nc(-c2ccccc2)cc1-c1ccccc1,> 100 µM,> 100 µM,> 100 µM,> 100 µM,,> 100 µM,> 100 µM,> 100 µM,> 100 µM,> 100 µM
CC(C)C1CC=NN1C(=O)OC(C)(C)C (stereo unspecified),> 100 µM,> 100 µM,> 100 µM,> 100 µM,> 100 µM,> 100 µM,> 100 µM,,,> 100 µM

Structure (SMILES),TGI [1],TGI [2],TGI [3],TGI [4],TGI [5],TGI [6],TGI [7],TGI [8],TGI [9],TGI [10]
CC(O)c1c2c(cc3c1CC1(C3)Cc3cc4c(c(C(C)O)c3C1)CCC4)CCC2 (stereo unspecified),29.8 µM,26.8 µM,60.8 µM,,32.8 µM,40.7 µM,38.4 µM,,34.5 µM,33.1 µM
O=C1CC2CC=C[C@H]3c4cc5c(cc4C(=O)N1C23)OCO5 (stereo partly specified),,> 50 µM,> 50 µM,> 50 µM,> 50 µM,> 50 µM,> 50 µM,> 50 µM,> 50 µM,> 50 µM
COC(=O)C1Cc2c([nH]c3ccccc23)C(c2cccc(O)c2)N1 (stereo unspecified),76.1 µM,> 100 µM,> 100 µM,> 100 µM,> 100 µM,> 100 µM,> 100 µM,73.4 µM,,> 100 µM
O=c1[nH]c2cc(C(F)(F)F)ccc2nc1Cc1ccccc1,> 100 µM,> 100 µM,87.4 µM,> 100 µM,> 100 µM,> 100 µM,> 100 µM,> 100 µM,,
Cc1ccc(/C=C2\CN(C)CC3C(c4ccc(C)cc4)=C(C#N)C(=O)NC23)cc1 (stereo unspecified),,> 50 µM,> 50 µM,> 50 µM,> 50 µM,> 50 µM,> 50 µM,> 50 µM,> 50 µM,> 50 µM
CCOc1ccc(N2C(=O)C3c4[nH]c5ccccc5c4C4CCC(C(C)(C)C)CC4C3C2=O)cc1 (stereo unspecified),> 100 µM,> 100 µM,> 100 µM,> 100 µM,,> 100 µM,,> 100 µM,> 100 µM,> 100 µM
CC(=O)Oc1ccccc1[C@H]1CC(=O)C[C@H](c2ccccc2OC(C)=O)C12C(=O)c1ccccc1C2=O,> 100 µM,84 µM,> 100 µM,,,30.9 µM,> 100 µM,51.2 µM,> 100 µM,
O=C(O)CCC(NC(=O)c1ccc(Nc2nc3ccccc3nc2C(=O)O)cc1)C(=O)O (stereo unspecified),> 100 µM,> 100 µM,> 100 µM,> 100 µM,,> 100 µM,> 100 µM,> 100 µM,> 100 µM,> 100 µM
COCCOCN(C(=O)C1=CCC2(CC1)OCCO2)c1ccccc1I,> 50 µM,,> 50 µM,,> 50 µM,> 50 µM,> 50 µM,> 50 µM,,> 50 µM
CC(CC(=O)CO[C@H]1[C@H](O)[C@@H](O)[C@@H](O)[C@@H]2NC(=O)c3c(cc4c(c3O)OCO4)[C@H]21)OC1OC(CO)C(O)C(O)C1O (stereo partly specified),2.22 µM,,3.87 µM,3.81 µM,1.32 µM,4.17 µM,1.77 µM,14.3 µM,3.16 µM,9.23 µM
COc1ccc(NC(=O)CC(=O)n2nc(C)c(N=Nc3ccc(C)c(C)c3)c2C)cc1,> 100 µM,,27.7 µM,> 100 µM,> 100 µM,> 100 µM,> 100 µM,> 100 µM,> 100 µM,> 100 µM
COc1c(Cl)ccc(Cl)c1C(=O)NNC(=O)c1c(Cl)c(Cl)c(Cl)c(Cl)c1-c1nc2ccc(C(=O)c3ccccc3)cc2[nH]1,> 100 µM,> 100 µM,> 100 µM,> 100 µM,> 100 µM,,> 100 µM,> 100 µM,> 100 µM,> 100 µM
O=C(O)C(CS)NCc1c2ccccc2[n+]([O-])c2ccccc12 (stereo unspecified),,> 100 µM,> 100 µM,91.3 µM,> 100 µM,> 100 µM,> 100 µM,> 100 µM,> 100 µM,> 100 µM
Cc1cc(S(N)(=O)=O)c(SCc2nc(N)nc(N(C)C)n2)cc1Cl,> 10 µM,> 10 µM,> 10 µM,> 10 µM,> 10 µM,,> 10 µM,> 10 µM,> 10 µM,> 10 µM
N=C(/C=C/c1ccc(-c2cn3cc(/C=C/C(=N)N4CCCC4)ccc3n2)cc1)N1CCCC1,> 100 µM,> 100 µM,> 100 µM,> 100 µM,,> 100 µM,> 100 µM,> 100 µM,> 100 µM,> 100 µM
CC(=O)Oc1ccc(N2C(=O)C3c4[nH]c5ccccc5c4C4CCC(C(C)(C)C)CC4C3C2=O)cc1 (stereo unspecified),,10.9 µM,24 µM,11 µM,14.3 µM,20.7 µM,,14.9 µM,19.4 µM,10.7 µM
CCOC(=O)c1cccc(NC(=O)CBr)c1,0.521 µM,1.63 µM,3.43 µM,,0.407 µM,2.92 µM,3.58 µM,7.75 µM,4.22 µM,3.96 µM
